Here are results for five molecules from the NIST ThermoML archive (doi:10.1016/j.fluid.2015.06.016).

Usually mass density stands for the mass of a sample divided by its volume.

± gives the expanded uncertainty stated by the source.

For the data set the following is noted: 303.15 K; 101.33 kPa; Liquid; Vibrating tube method.
Take `NCCO.O=CO` [2-hydroxyethylammonium formate]: the mass density came out at 1184.46 ± 1.2 kg/m3.

As to `CCCCCCCCCC` [decane], the mass density was found to be 722.439 ± 0.28 kg/m3.

Regarding `OCC(O)CO` [glycerol], the mass density is recorded as 1257.13 ± 0.25 kg/m3.

Turning to `O=S1(=O)CCCC1` [sulfolane], the mass density is 1265.75 ± 0.45 kg/m3.

As for `Cc1ccccc1` [toluene], the mass density amounted to 857.606 ± 0.18 kg/m3.
